The values that follow come from patent US8603737B2, “Methods for identifying HCV protease inhibitors” (priority 2008, dated 2013).

Assay [1] deals with T1, A156T mutant of the HCV NS3/4A 1b protease enzyme (Hepatitis C virus genotype 1b, UniProt P26663, A1182T).
T1 construct: 10× stocks of NS3/4A protease enzyme from Bioenza; purchased Bioenza (Mountain View, Calif.)
The assay is described as follows: HCV protease FRET assay, A156T mutant. To be noted: read-out: Inhibition, HCV A156T (IC50). In kind it is biochemical. The procedure: (§1) HCV Protease FRET Assay for Mutated NS3/4A 1b Enzymes
(§2) The protocol is a modified FRET-based assay (v—02) from In Vitro Resistance Studies of HCV Serine Protease Inhibitors, 2004, JBC, vol. 279, No. 17, pp 17508-17514. Inherent potency of compounds was assessed against A156S, A156T, D168A, and D168V mutants of the HCV NS3/4A 1b protease enzyme as follows:
(§3) Assay buffer: 2% CHAPS, 50 mM Tris pH 7.5, 50% glycerol, 2 μM M-2235 (Bachem) substrate. In a 50 μl reaction, add 49 μl assay buffer, 1 μl (1 U) HCV serine protease (Bioenza). Incubate 20 minutes at room temperature. The plate was read at either 350/460 nm (excitation/emission) on a fluorescent micro-plate reader or monitored at one-minute intervals to achieve the kinetic curve.
10× stocks of NS3/4A protease enzyme from Bioenza (Mountain View, Calif.) and 1.13×5-FAM/QXL™520 FRET peptide substrate from Anaspec (San Jose, Calif.) were prepared in 50 mM HEPES, pH 7.8, 100 mM NaCl, 5 mM DTT and 20% glycerol. […] Protease reactions were started with the addition of 45 μL of the FRET substrate and monitored for 120 minutes at λex487/λem514 through Quad^4 monochromoters in a Synergy^4 plate reader from BioTek (Winooski, Vt.). […]

The target in assay [2] is T2, D168V mutant of the HCV NS3/4A 1b protease enzyme (Hepatitis C virus genotype 1b, UniProt P26663, D1194V).
T2 construct: 10× stocks of NS3/4A protease enzyme from Bioenza; purchased Bioenza (Mountain View, Calif.)
The assay is described as follows: HCV protease FRET assay, D168V mutant. In kind it is biochemical. To be noted: read-out: Inhibition, HCV D168V (IC50). How it is done: as §1, §2, §3
10× stocks of NS3/4A protease enzyme from Bioenza (Mountain View, Calif.) and 1.13×5-FAM/QXL™520 FRET peptide substrate from Anaspec (San Jose, Calif.) were prepared in 50 mM HEPES, pH 7.8, 100 mM NaCl, 5 mM DTT and 20% glycerol. 5 μL of each enzyme were pre-incubated in a Corning (#3573) 384-well, black, non-treated microtiter plate (Corning, N.Y.) for 30 min at 25° C. with a 0.5 μL volume of 50% DMSO and serially diluted compounds prepared in 50% DMSO. Protease reactions were started with the addition of 45 μL of the FRET substrate and monitored for 120 minutes at λex487/λem514 through Quad^4 monochromoters in a Synergy^4 plate reader from BioTek (Winooski, Vt.). […] Initial velocity (0 minutes to 30+ minutes) from each reaction was determined from the slope of a plot of relative fluorescence units vs time (minutes) and then plotted against inhibitor concentration to estimate IC50 from log[Inhibitor] vs Response, Variable Slope model in GraphPad Prism from GraphPad Software (San Diego, Calif.). […]
The following protocol was used to generate “apparent” IC50 (IC50—APP)) values as depicted in Table 3, below. […] Protease reactions were immediately started after enzyme addition with the addition of 45 μL of the FRET substrate and monitored for 60-90 minutes at λex485/λem520 in a Synergy^4 plate reader from BioTek (Winooski, Vt.). […]

Assay [3] concerns the target T3, R155K mutant of the HCV NS3/4A 1b protease enzyme (Hepatitis C virus genotype 1b, UniProt P26663, R1181K).
T3 construct: 10× stocks of NS3/4A protease enzyme from Bioenza; purchased Bioenza (Mountain View, Calif.)
The assay is described as follows: HCV protease FRET assay, R155K mutant. The format is biochemical. Particulars: read-out: Inhibition, HCV R155K (IC50). The source says:
HCV Protease FRET Assay for WT and Mutated NS3/4A 1b Enzymes (IC50 —APP)
The following protocol was used to generate “apparent” IC50 (IC50—APP)) values as depicted in Table 3, below. Without wishing to be bound by any particular theory, it is believed that IC50—APP, contrasted with IC50 values, may provide a more useful indication of time-dependent inhibition, and are thus more representative of binding affinity. The protocol is a modified FRET-based assay (v—03) developed to evaluate compound potency, rank-order and resistance profiles against wild type and C159S, A156S, A156T, D168A, D168V, R155K mutants of the HCV NS3/4A 1b protease enzyme as follows: 10× stocks of NS3/4A protease enzyme from Bioenza (Mountain View, Calif.) and 1.13×5-FAM/QXL™520 FRET peptide substrate from Anaspec (San Jose, Calif.) were prepared in 50 mM Tris-HCl, pH 7.5, 5 mM DTT, 2% CHAPS and 20% glycerol. 5 μL of each enzyme were added to Corning (#3575) 384-well, black, microtiter plates (Corning, N.Y.) after spotting a 0.5 μL volume of 50% DMSO and serially diluted compounds prepared in 50% DMSO. Protease reactions were immediately started after enzyme addition with the addition of 45 μL of the FRET substrate and monitored for 60-90 minutes at λex485/λem520 in a Synergy^4 plate reader from BioTek (Winooski, Vt.). […]

In assay [4] the test system is HCV RNA replicon in cell line ET (luc-ubi-neo/ET), human Huh7 hepatoma. The assay is described as follows: Luciferase reporter replicon assay (Example 5, Method C). In kind it is cell-based. To be noted: Hepatitis C virus, Huh-7, 72 hr. The procedure: Method C: Luciferase Reporter Assay Protocol
The compounds were assayed to evaluate the antiviral activity and cytotoxicity of compounds using replicon-derived luciferase activity. This assay used the cell line ET (luc-ubi-neo/ET), which is a human Huh7 hepatoma cell line that contains an HCV RNA replicon with a stable luciferase (Luc) reporter and three cell culture-adaptive mutations. The ET cell line was grown in a 5% CO2 incubator at 37° C. in Dulbecco's modified essential media (DMEM), supplemented with 2 mM L-glutamine (“1%”), nonessential amino acids, 100 U of penicillin/mL, 100 μg of streptomycin/mL (“1%”), 10% fetal bovine serum and 400 μg/mL G418 (Geneticin; Invitrogen).
All cell culture reagents were obtained from Invitrogen (Carlsbad). Cells were trypsinized (1% trypsin:EDTA) and plated out at 5×10^3 cells/well in white 96-well assay plates (Costar) dedicated to cell number (cytotoxicity) or antiviral activity assessments. Test compounds were added at six 3-fold serial dilutions each and the assay was run in DMEM, 5% FBS, 1% pen-strep, 1% glutamine, 1% non essential amino acid. Human interferon alpha-2b (PBL Biolabs, New Brunswick, N.J.) was included in each run as a positive control compound. Cells were processed 72 hr post test compound addition when the cells were still subconfluent. Antiviral activity was measured by analyzing replicon-derived luciferase activity using the Steady-Glo Luciferase Assay System (Promega, Madison, Wis.) according to manufacturer's instruction. The number of cells in each well was determined by Cell Titer Blue Assay (Promega). Compound profile was derived by calculating applicable EC50 (effective concentration inhibiting virus replication by 50%), EC90 (effective concentration inhibiting virus replication by 90%), IC50 (concentration decreasing cell viability by 50%) and SI50 (selective index: […]) values.
For orientation: In a reporter assay the amount or activity of a reporter protein is the signal.

Turning to `C=C[C@@H]1C[C@]1(NC(=O)[C@@H]1C[C@@H](Oc2cc(-c3ccccc3)nc3cc(OC)ccc23)CN1C(=O)C(NC(=O)OC(C)(C)C)[C@@H](C)OC(=O)/C=C/C)C(=O)NS(=O)(=O)C1CC1` (stereo partly shown) [Compound 3], the IC50 (as a rule, the midpoint of a concentration-inhibition curve) fell in the range of 100 to 1000 nM in assay [1] and 1000 to 10000 nM in assay [2].

Turning to `C=CC(=O)N(C)C[C@H](NC(=O)OC(C)(C)C)C(=O)N1C[C@H](OC(=O)N2Cc3cccc(F)c3C2)C[C@H]1C(=O)N[C@]1(C(=O)NS(=O)(=O)C2CC2)C[C@H]1C=C` [Compound 4], the IC50 in assay [1] is below 10 nM; in assay [2] it was 10 to 100 nM; in assay [3] it was 10 to 100 nM; in assay [4] (read-out: Inhibition, Replicon (IC50), Method C) it was below 10 nM. For the same compound, the IC90 – broadly, the concentration at which the effect reaches the 90% level – in assay [4] (IC90, read-out: Inhibition, Replicon, IC90 value, Method C) lay in the range of 10 to 100 nM.

On to `CC(C)(C)OC(=O)NC1CN(C(=O)CCl)CCC/C=C\[C@@H]2C[C@@]2(C(=O)NS(=O)(=O)C2CC2)NC(=O)[C@@H]2C[C@@H](OC(=O)N3Cc4cccc(F)c4C3)CN2C1=O` (stereo partly shown) [Compound 8], for which the IC50 in assay [3] is 10 to 100 nM. Further, the EC90 (in general, the concentration needed for an effect of 90%) in assay [4] (EC90, read-out: Inhibition, Replicon, EC90 value) was in the range of 100 to 1000 nM. In addition, the EC50 (in general, the concentration giving half of the maximal effect) in assay [4] (read-out: Inhibition, Replicon, EC50 value) lay in the range of 10 to 100 nM.
